{"source": "paper PMC6267684", "about": "“Pharmacokinetic evaluation of the PNC disassembler metarrestin in wild-type and Pdx1-Cre;LSL-Kras^G12D/+;Tp53^R172H/+ (KPC) mice, a genetically engineered model of pancreatic cancer” (Cancer Chemotherapy and Pharmacology, 2018)", "assay": "Pharmacokinetics in tumor-bearing KPC mice after 25 mg/kg single or multiple dose oral gavage", "assay_type": "in vivo", "settings": "for AUC(0-t): po; for Kp: read-out: AUC0–24h ratio (tissue/plasma)", "from_the_text": "Animals with three or more tumors per organ, pancreatic cysts or cystic tumors, signs of intestinal, pancreatic or gall bladder duct occlusions, or otherwise moribund/showing signs of dilapidation were excluded. Mice were randomized into treatment groups using their tumor volume and location inside pancreas, animal age, gender, and weight by an unbiased covariate randomization.\nFor pharmacokinetic studies, metarrestin solutions prepared in 30% PEG-400 and 70% (20% w:v HP-β-CD in water) solution were administered to C57BL/6 mice at 3 mg/kg IV via tail vein injection, or 3 and 10 mg/kg orally via gavage. KPC mice were additionally treated with 25 mg/kg PO via gavage. The dosing volume was 3 mL/kg for IV route and 10 mL/kg for PO route. Dosing solutions were prepared on the day of administration. Blood samples were collected at 10, 20 min, 1, 2, 4, 7 and 24 h after 3 mg/kg IV administration. After oral administration of 3 and 10 mg/kg in C57BL6 mice, blood and liver samples were collected at 10 min, 0.5, 1, 2, 3, 5, 7, 9 and 24 h post dosing (n = 3 per time point). In KPC mice, blood, pancreatic tumor, spleen and liver samples were collected at 1, 2, 3, 6, 9, 12 and 24 h after 25 mg/kg PO administration.\nFor the assessment of multiple dose (MD) pharmacokinetics, KPC mice were treated with daily PO administration of 25 mg/kg metarrestin for 14 days. Plasma (100–300 µL), pancreatic tumors, spleen and liver samples were collected at 0, 3, 6, 9, 12, 15, 24 and 48 h after last dose from three mice at each time point. Daily dosing was carried for 14 days, with the last dose administered at 9:00 a.m. on Day 14. To assess the steady-state concentration of metarrestin in KPC mice, animals were treated with drug-formulated chow for 14 days. To control for daily cycle changes in feeding behavior, 9:00 a.m. on day 0 was designated as the study start time, and 9:00 a.m. on Day 14 was designated as the 0 h time point for sample collection. Blood, pancreatic tumor, spleen and liver tissue were collected at 0, 3, 6, 9, 12, 15, and 24 h from three mice at each time point while the animals were continuously fed with metarrestin-formulated chow on Day 14. Additional controls included mice with a matched drug-free diet, with blood and tissue samples collected at the initial (t = 0) and two intermediate (t = 9 h, t = 24 h) time points.\nBlood samples were collected in K2EDTA tubes and plasma was harvested after centrifugation at 3000 rpm for 10 min. Tissue samples were weighed and flash-frozen for PK and PD mRNA expression analyses, embedded into OCT blocks for PNC determination and processed into FFPE blocks for histopathology assessment. All PK samples were stored at − 80 °C until analysis.\nAn ultra-performance liquid chromatography–tandem mass spectrometry (UPLC–MS/MS) method was developed to determine metarrestin concentrations in plasma and tissue samples. Mass spectrometric analysis was performed on a Waters Xevo TQ-S triple quadrupole instrument using electrospray ionization in positive mode. The separation was performed on an Acquity BEH C18 column (50 × 2.1 mm, 1.7 µ) using a Waters Acquity UPLC system with 0.6 mL/min flow rate and gradient elution. Mobile phase A was 0.1% formic acid in water, and B was 0.1% formic acid in acetonitrile (ACN). The column temperature was maintained at 60 °C. The calibration standards and quality control (QC) samples were prepared in the control blank mouse plasma and tissue homogenate. Tissues were homogenized with 3 or 6 volumes (v/w) of deionized water on the day of analysis. Proteins were precipitated from 10 µL plasma or 5 µL tissue homogenate with 200 µL ACN containing 100 ng/mL Tolbutamide as internal standard in 96-well plates. The mixture was vortexed for 2 min and centrifuged at 4000 rpm for 30 min at 4 °C. An aliquot of 150 µL supernatant was transferred to a 350-µL 96-well plate. 0.2 µL supernatant was injected for the UPLC–MS/MS analysis. Data were analyzed using MassLynx V4.1. […]", "key": {"[1]": {"settings": "KPC, mouse, pancreatic tumor, tumor, day 14, multiple PO doses 25 mg/kg/day"}, "[2]": {"settings": "KPC, mouse, pancreatic tumor, tumor, single PO dose 25 mg/kg"}, "[3]": {"settings": "KPC, mouse, liver, day 14, multiple PO doses 25 mg/kg/day"}, "[4]": {"settings": "KPC, mouse, liver, single PO dose 25 mg/kg"}, "[5]": {"settings": "KPC, mouse, plasma, day 14, multiple PO doses 25 mg/kg/day"}, "[6]": {"settings": "KPC, mouse, plasma, single PO dose 25 mg/kg"}, "[7]": {"settings": "KPC, mouse, spleen, day 14, multiple PO doses 25 mg/kg/day"}, "[8]": {"settings": "KPC, mouse, spleen, single PO dose 25 mg/kg"}}, "note": "Several values for one entry are separate records, joined by “and”; a condition that tells them apart may be missing. Equal values may be shown once. Read-outs that look alike come from different tables or passages of the source.", "data": [{"compound": "N=c1c2c(-c3ccccc3)c(-c3ccccc3)n(Cc3ccccc3)c2ncn1[C@H]1CC[C@H](O)CC1", "note": "[metarrestin, Trans-4-(7-benzyl-4-imino-5,6-diphenyl-4,7-dihydro-3H-pyrrolo[2,3-d]pyrimidin-3-yl) cyclohexanol]", "values": [{"measurement": "intratumor AUC0–24h", "setting": "25 mg/kg PO gavage MD", "result": "1,150,000 h ng/mL"}, {"measurement": "AUC(0-t)", "setting": "KPC, mouse, liver, 25 mg/kg, liver, single PO dose 25 mg/kg, read-out: AUC0–24h", "result": 536, "unit": "µg·h/mL"}, {"measurement": "AUC(0-t)", "setting": "KPC, mouse, liver, 25 mg/kg/day, liver, day 14, multiple PO doses 25 mg/kg/day, read-out: AUC0–24h", "result": 987, "unit": "µg·h/mL"}, {"measurement": "AUC(0-t)", "setting": "KPC, mouse, liver, 25 mg/kg/day, liver, day 14, multiple PO doses 25 mg/kg/day, read-out: AUC0–48h", "result": 1290, "unit": "µg·h/mL"}, {"measurement": "Kp", "setting": "KPC, mouse, pancreatic tumor / plasma, tumor/plasma, day 14, multiple PO doses 25 mg/kg/day", "result": 37}, {"measurement": "Kp", "setting": "KPC, mouse, pancreatic tumor / plasma, tumor/plasma, single PO dose 25 mg/kg", "result": 19}, {"measurement": "AUC(0-t)", "setting": "KPC, mouse, pancreatic tumor, 25 mg/kg, tumor, single PO dose 25 mg/kg, read-out: AUC0–24h", "result": 232, "unit": "µg·h/mL"}, {"measurement": "AUC(0-t)", "setting": "KPC, mouse, pancreatic tumor, 25 mg/kg/day, tumor, day 14, multiple PO doses 25 mg/kg/day, read-out: AUC0–24h", "result": 1150, "unit": "µg·h/mL"}, {"measurement": "AUC(0-t)", "setting": "KPC, mouse, pancreatic tumor, 25 mg/kg/day, tumor, day 14, multiple PO doses 25 mg/kg/day, read-out: AUC0–48h", "result": 1810, "unit": "µg·h/mL"}, {"measurement": "concentration at 24 h", "setting": "KPC, mouse, pancreatic tumor, 24 h after single dose 25 mg/kg PO, read-out: intratumor concentration (mean)", "result": "6200 ng/g and 13 µM"}, {"measurement": "AUC(0-inf)", "setting": "[1]", "result": 2090, "unit": "µg·h/mL"}, {"measurement": "Cmax", "setting": "[1]", "result": 65000, "unit": "ng/mL"}, {"measurement": "Tmax", "setting": "[1]", "result": 6, "unit": "h"}, {"measurement": "half-life", "setting": "[1]", "result": 18, "unit": "h"}, {"measurement": "Cmax", "setting": "[2]", "result": 14000, "unit": "ng/mL"}, {"measurement": "Tmax", "setting": "[2]", "result": 6, "unit": "h"}, {"measurement": "AUC(0-t)", "setting": "KPC, mouse, plasma, 25 mg/kg, plasma, single PO dose 25 mg/kg, read-out: AUC0–24h", "result": 12.1, "unit": "µg·h/mL"}, {"measurement": "AUC(0-t)", "setting": "KPC, mouse, plasma, 25 mg/kg/day, plasma, day 14, multiple PO doses 25 mg/kg/day, read-out: AUC0–24h", "result": 31.5, "unit": "µg·h/mL"}, {"measurement": "AUC(0-t)", "setting": "KPC, mouse, plasma, 25 mg/kg/day, plasma, day 14, multiple PO doses 25 mg/kg/day, read-out: AUC0–48h", "result": 38.4, "unit": "µg·h/mL"}, {"measurement": "AUC(0-t)", "setting": "KPC, mouse, spleen, 25 mg/kg, spleen, single PO dose 25 mg/kg, read-out: AUC0–24h", "result": 396, "unit": "µg·h/mL"}, {"measurement": "AUC(0-t)", "setting": "KPC, mouse, spleen, 25 mg/kg/day, spleen, day 14, multiple PO doses 25 mg/kg/day, read-out: AUC0–24h", "result": 959, "unit": "µg·h/mL"}, {"measurement": "AUC(0-t)", "setting": "KPC, mouse, spleen, 25 mg/kg/day, spleen, day 14, multiple PO doses 25 mg/kg/day, read-out: AUC0–48h", "result": 1220, "unit": "µg·h/mL"}, {"measurement": "Kp", "setting": "KPC, mouse, liver/plasma, day 14, multiple PO doses 25 mg/kg/day", "result": 31}, {"measurement": "Kp", "setting": "KPC, mouse, liver/plasma, single PO dose 25 mg/kg", "result": 44}, {"measurement": "AUC(0-inf)", "setting": "[3]", "result": 1350, "unit": "µg·h/mL"}, {"measurement": "Cmax", "setting": "[3]", "result": 59500, "unit": "ng/mL"}, {"measurement": "Tmax", "setting": "[3]", "result": 6, "unit": "h"}, {"measurement": "half-life", "setting": "[3]", "result": 9.6, "unit": "h"}, {"measurement": "AUC(0-inf)", "setting": "[4]", "result": 653, "unit": "µg·h/mL"}, {"measurement": "Cmax", "setting": "[4]", "result": 34200, "unit": "ng/mL"}, {"measurement": "Tmax", "setting": "[4]", "result": 6, "unit": "h"}, {"measurement": "half-life", "setting": "[4]", "result": 9, "unit": "h"}, {"measurement": "AUC(0-inf)", "setting": "[5]", "result": 39.3, "unit": "µg·h/mL"}, {"measurement": "Cmax", "setting": "[5]", "result": 2000, "unit": "ng/mL"}, {"measurement": "Tmax", "setting": "[5]", "result": 3, "unit": "h"}, {"measurement": "half-life", "setting": "[5]", "result": 8.2, "unit": "h"}, {"measurement": "AUC(0-inf)", "setting": "[6]", "result": 14.4, "unit": "µg·h/mL"}, {"measurement": "Cmax", "setting": "[6]", "result": 810, "unit": "ng/mL"}, {"measurement": "Tmax", "setting": "[6]", "result": 6, "unit": "h"}, {"measurement": "half-life", "setting": "[6]", "result": 8.5, "unit": "h"}, {"measurement": "Kp", "setting": "KPC, mouse, spleen/plasma, day 14, multiple PO doses 25 mg/kg/day", "result": 30}, {"measurement": "Kp", "setting": "KPC, mouse, spleen/plasma, single PO dose 25 mg/kg", "result": 33}, {"measurement": "AUC(0-inf)", "setting": "[7]", "result": 1250, "unit": "µg·h/mL"}, {"measurement": "Cmax", "setting": "[7]", "result": 62400, "unit": "ng/mL"}, {"measurement": "Tmax", "setting": "[7]", "result": 6, "unit": "h"}, {"measurement": "half-life", "setting": "[7]", "result": 8.2, "unit": "h"}, {"measurement": "AUC(0-inf)", "setting": "[8]", "result": 495, "unit": "µg·h/mL"}, {"measurement": "Cmax", "setting": "[8]", "result": 25000, "unit": "ng/mL"}, {"measurement": "Tmax", "setting": "[8]", "result": 6, "unit": "h"}, {"measurement": "half-life", "setting": "[8]", "result": 9.7, "unit": "h"}, {"measurement": "AUC0–24h", "setting": "liver, MD 25 mg/kg/day PO", "result": "987,000 ng h/g"}, {"measurement": "AUC0–24h", "setting": "liver, SD 25 mg/kg PO", "result": "536,000 ng h/g"}, {"measurement": "AUC0–24h", "setting": "tumor, MD 25 mg/kg/day PO", "result": "1,150,000 ng h/g"}, {"measurement": "AUC0–24h", "setting": "tumor, SD 25 mg/kg PO", "result": "232,000 ng h/g"}]}]}
